{"source": "paper PMC8917853", "about": "“Synthesis and evaluation of ^99mTc-DOTA-ARA-290 as potential SPECT tracer for targeting cardiac ischemic region” (Iranian Journal of Basic Medical Sciences, 2021)", "key": {"in vitro": {"experiment": "in vitro", "conditions": "human, fresh human serum", "description": "(§1) As an in vitro stability evaluation, radiolabeled peptides (specific activity= 18.5 MBq/nmol) were added to sodium chloride 0.9 % isotonic solution ([24]). After incubation at ambient temperature, samples were taken out at 0.06, 0.5, 1, 2, 4, and 6 hr. The radiochemical purity of the mixture was investigated by a TLC stripe. To survey biostability, 100 μl of the labeled compound was added to fresh human serum (1 ml) and incubated (37 °C, 5% CO2) at different time points (4, 30, 60, 120, 240, and 360 min). 100 μl aliquots of serum samples were then incubated with 100 μl of ethanol. Samples were centrifuged at 5000 rpm for 5 min at 37 °C and 20 µl supernatant was removed to assess the degradation of ^99mTc labeled peptide by TLC."}, "[1]": {"conditions": "sodium chloride 0.9%, ambient temperature, up to 6 hr, TLC, specific activity 18.5 MBq/nmol, mean n=3", "description": "as §1"}, "[2]": {"molecular_target": "T1, EPOR-BcR receptor on H9c2 myocardial cells (Rattus norvegicus, UniProt Q07303+Q78ZF5)", "T1 construct": "endogenous in cells; host or cells: H9c2 myocardial cells (hypoxic vs normoxic culture)", "T1 sequence (Q07303 25-507)": "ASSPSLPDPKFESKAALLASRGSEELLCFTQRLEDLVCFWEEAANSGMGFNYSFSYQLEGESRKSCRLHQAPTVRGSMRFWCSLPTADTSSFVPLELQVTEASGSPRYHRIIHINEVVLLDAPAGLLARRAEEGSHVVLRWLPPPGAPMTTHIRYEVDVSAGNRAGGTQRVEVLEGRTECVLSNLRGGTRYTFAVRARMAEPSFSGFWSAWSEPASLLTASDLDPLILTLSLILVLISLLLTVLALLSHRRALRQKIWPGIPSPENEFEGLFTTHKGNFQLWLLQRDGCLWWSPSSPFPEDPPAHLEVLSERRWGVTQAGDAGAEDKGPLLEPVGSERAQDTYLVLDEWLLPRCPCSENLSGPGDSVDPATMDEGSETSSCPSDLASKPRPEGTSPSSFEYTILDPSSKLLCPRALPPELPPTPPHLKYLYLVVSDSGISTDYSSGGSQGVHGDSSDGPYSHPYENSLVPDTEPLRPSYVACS", "T1 sequence (Q78ZF5 29-896)": "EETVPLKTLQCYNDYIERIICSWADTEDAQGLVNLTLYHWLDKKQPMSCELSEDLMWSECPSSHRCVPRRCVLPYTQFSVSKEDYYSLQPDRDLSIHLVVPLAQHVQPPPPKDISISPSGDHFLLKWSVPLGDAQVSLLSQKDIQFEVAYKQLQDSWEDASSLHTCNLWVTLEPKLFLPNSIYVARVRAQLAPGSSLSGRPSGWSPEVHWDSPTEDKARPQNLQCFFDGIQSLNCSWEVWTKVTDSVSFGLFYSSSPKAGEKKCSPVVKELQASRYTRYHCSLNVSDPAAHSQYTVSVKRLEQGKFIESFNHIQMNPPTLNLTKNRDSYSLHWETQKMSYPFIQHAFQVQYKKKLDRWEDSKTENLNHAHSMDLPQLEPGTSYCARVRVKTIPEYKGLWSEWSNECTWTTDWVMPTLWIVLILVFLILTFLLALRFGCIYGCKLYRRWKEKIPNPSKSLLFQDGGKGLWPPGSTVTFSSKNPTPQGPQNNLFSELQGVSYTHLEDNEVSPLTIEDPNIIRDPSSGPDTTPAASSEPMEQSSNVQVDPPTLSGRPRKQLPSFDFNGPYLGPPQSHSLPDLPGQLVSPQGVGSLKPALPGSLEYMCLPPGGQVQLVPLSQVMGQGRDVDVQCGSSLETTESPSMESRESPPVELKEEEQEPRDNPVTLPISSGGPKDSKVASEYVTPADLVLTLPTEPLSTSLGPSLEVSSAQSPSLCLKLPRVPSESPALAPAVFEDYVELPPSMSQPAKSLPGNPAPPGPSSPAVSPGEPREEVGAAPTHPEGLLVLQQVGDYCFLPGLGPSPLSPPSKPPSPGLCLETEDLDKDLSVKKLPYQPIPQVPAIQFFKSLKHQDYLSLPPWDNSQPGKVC", "experiment": "In vitro hypoxia test: binding to hypoxic vs normoxic H9c2 myocardial cells", "format": "cell-based", "conditions": "for binding to hypoxic cells relative to normoxic cells: H9c2 cells, 250 pmol radiopeptide, 37 °C, triplicate", "description": "H9c2 myocardial cells were separated into three groups. The normoxic control group (negative EPOR-BcR receptor) was cultured in a normoxic (20% O2) culture medium. Hypoxic group (positive EPOR-BcR receptor) was cultured in a different time interval (1-4 hr) hypoxic culture condition (5% CO2 and 2% O2) and blocking test (specific binding assay) in the hypoxic condition. […] The cells for triplicate were placed inside confocal plates (Costar) at a density of 1 × 10^5 per well, then treated with almost 250 pmol of ^99mTc-DOTA-(Lys-Dabcyl^6,Phe^7)-ARA-290 subject to 0.025 MBq at 37 °C. Incubation was disrupted with 1 ml of chilled PBS. Afterward, the cells were separated by […] to measure the cell-bound level of ^99mTc-DOTA-(Lys-Dabcyl^6,Phe^7)-ARA-290 by a scintillator. EPOR-BcR receptor blocking was done by using 50-fold extra of the unlabeled peptide in 30 min before the injection of the labeled peptide."}, "cardiac ischemic region": {"system": "cardiac ischemic region", "experiment": "Planar SPECT scintigraphy in ischemic and normal rats", "format": "in vivo, rat", "conditions": "200 MBq", "description": "30 and 90 min post-injection of ^99mTc-DOTA-(Lys-Dabcyl^6,Phe^7)-ARA-290 (200 MBq) into ischemic and normal rats, planar images were captured by a dual-head SPECT system (E.cam, Siemens, Germany) that was arranged with low energy high-resolution collimators, a 128*128 matrix size, and a 20% energy window set at 140 keV ([29])."}}, "note": "Residues, ends and D or L forms follow the SMILES beside them. *: point of attachment. DOTA = O=C(O)CN1CCN(CC(=O)O)CCN(CC(=O)*)CCN(CC(=O)O)CC1; X1 = CN(C)c1ccc(/N=N/c2ccc(C(=O)*)cc2)cc1"}
{"smiles": "CC(C)C[C@H](NC(=O)[C@H](Cc1ccccc1)NC(=O)[C@H](CCCCNC(=O)c1ccc(/N=N/c2ccc(N(C)C)cc2)cc1)NC(=O)[C@H](CCC(=O)O)NC(=O)[C@H](CC(C)C)NC(=O)[C@H](CCC(N)=O)NC(=O)[C@H](CCC(=O)O)NC(=O)[C@H](CCC(=O)O)NC(=O)CN1CCN(CC(=O)O)CCN(CC(=O)O)CCN(CC(=O)O)CC1)C(=O)N[C@@H](CC(N)=O)C(=O)N[C@@H](CO)C(=O)N[C@@H](CO)C(=O)O", "note": "[99mTc-DOTA-(Lys-Dabcyl6,Phe7)-ARA-290, metal not drawn] ({DOTA}-EEQLEK(X1)FLNSS-OH; C-terminus assumed)", "values": [{"measurement": "remaining at 4 h", "setting": "in vitro", "result": 94, "unit": "%"}, {"measurement": "remaining at 6 h", "setting": "in vitro", "result": 93, "unit": "%"}, {"measurement": "saline stability of radiopeptide (radiochemical purity remaining)", "setting": "[1]", "result": 95, "unit": "%"}, {"measurement": "binding to hypoxic cells relative to normoxic cells", "setting": "[2]; hypoxia 2% O2 vs normoxia 20% O2, 1 hr", "result": 3, "unit": "fold"}, {"measurement": "binding to hypoxic cells relative to normoxic cells", "setting": "[2]; hypoxia 2% O2 vs normoxia 20% O2, 4 hr", "result": "~5", "unit": "fold"}, {"measurement": "binding to hypoxic cells in blocking test", "setting": "[2]; hypoxic H9c2 cells, 50 mol excess of unlabeled peptide 30 min before radiopeptide", "result": "the same result was obtained for the normoxic cells"}, {"measurement": "binding affinity to H9c2 cells under normoxic situations", "setting": "[2]; normoxic 20% O2, H9c2 cells", "result": "very low"}, {"measurement": "scintigraphy: ischemic region uptake", "setting": "cardiac ischemic region; cardiac ischemic rats, planar images at 30 and 90 min post-injection", "result": "considerable ischemic region uptake"}, {"measurement": "scintigraphy: cardiac accumulation", "setting": "cardiac ischemic region; normal rat, 30 min post-injection", "result": "not detectable"}]}
